According to patent US6861431B2, “Compounds capable of modulating the activity of multidrug transporters and therapeutic use of the same” (The Board of Trustees of the University of Illinois, priority 2001, dated 2005):
Values after ≈ are worked out from the molar mass of the structure shown. “Also recorded” adds a separate entry of the source. Where two headings read alike, the source gives them in different places. Each block holds one compound with its values, some of them ahead of it.

Experiments:
P-gp [1] = assay: Rho123 efflux from preloaded ConA cells; assay type: cell-based, mouse; set-up: increase of efflux of Rho123 from cells preloaded with the dye: dose or concentration left out as unconfirmed
Description: (§1) Drug accumulation and efflux assay. […] For drug efflux assay, cells after drug incubation were washed thoroughly with PBS, incubated in a drug-free media with or without compounds from the chemical library, and harvested at different time points for flow cytometric analysis (18).
The dynamics of reduction of Rho123 fluorescence was monitored by flow cytometry.

SW1753-A120 cells = assay: Drug sensitivity assay, SW1753-A120 cells (expressing MRP1); assay type: cell-based; details: P-gp-negative; for cell sensitivity to vinblastine: MRP1-positive cells SW1753-A120 (FIG. 13)
Description: (§2) To determine transporter specificity of the identified compounds, the compounds were tested on cells differing in the type of multidrug transporter expressed: KB-8-5-11 cells, (expressing P-gp), SW1753-A120 cells (expressing MRP1), and KB-3-1 (expressing neither of the above transporters and highly sensitive to drugs that are P-gp or MRP1 substrates).

P-gp [2] = target: T1, P-gp (Homo sapiens, UniProt P08183); assay: Rho123 accumulation in KB-8-5-11 cells; assay type: cell-based; set-up: overexpressing P-gp as a result of MDR1 gene amplification (20); endogenous in cells; host or cells: KB-8-5-11 (multidrug resistant derivative of KB-3-1); details: KB-8-5-11 cells overexpressing P-gp
From the text: (§3) Drug accumulation and efflux assay.
To test the effect of Compound 102 specifically on P-gp, a pair of human cell lines used as conventional models for studying P-gp, i.e., P-gp-negative KB-3-1 and its multidrug resistant derivative KB-8-5-11, overexpressing P-gp as a result of MDR1 gene amplification (20), were used.

P-gp [3] = target: T1, P-gp; assay: P-gp-mediated efflux of taxol by KB-8-5-11 cells; assay type: cell-based; set-up: overexpressing P-gp as a result of MDR1 gene amplification (20); endogenous in cells; host or cells: KB-8-5-11 (multidrug resistant derivative of KB-3-1)
From the text: as §3
Consistent with the drug sensitivity data, Compound 102 suppressed P-gp-mediated efflux of taxol by KB-8-5-11 cells, acting as a P-gp inhibitor for this drug (FIGS. 4 and 5). These observations indicate that Compound 102 should be defined as a modulator rather than a general activator of P-gp that acts by changing relative substrate specificity of the transporter.

ConA cells = assay: Drug sensitivity (growth inhibition) assay, ConA cells; assay type: cell-based, mouse; details: for IC50: Mus musculus, murine ConA cells, read-out: 50% growth inhibitory dose of the drug
Description: Drug sensitivity assays. To estimate drug-mediated growth inhibition, 10^3 cells were plated per well of 96-well plates, and incubated with a range of concentrations of drugs added 24 hours after plating. […] After elution by 1% SDS solution, optical density was determined on a Multiscan Ascent reader (Lybsystems, Helsinki, Finland) at 650 nm.

KB-3-1 cells = assay: Drug sensitivity assay, KB-3-1 cells (P-gp-negative); assay type: cell-based, human
Description: (§4) Drug sensitivity assays. To estimate drug-mediated growth inhibition, 10^3 cells were plated per well of 96-well plates, and incubated with a range of concentrations of drugs added 24 hours after plating. After 5 to […] of drug treatment, plates were fixed and stained using 2% methylene blue solution in 50% methanol. After elution by 1% SDS solution, optical density was determined on a Multiscan Ascent reader (Lybsystems, Helsinki, Finland) at 650 nm.
as §2

mouse ConA cells = assay: DMBA sensitivity of mouse cells; assay type: cell-based
Description: (§5) The effect of the identified compounds on DMBA sensitivity of mouse cells also was tested. It has been reported that ABC type transporters (e.g., P-gp) are involved in the efflux of polycyclic aromatic hydrocarbon carcinogens from cells. The effect of the identified compounds on sensitivity of mouse cells to 7,12-dimethylbenz[a]anthracene (DMBA) was determined. […].

P-gp [4] = target: T1, P-gp; assay: Drug resistance of mouse ConA cells expressing human P-gp (MDR1 cDNA transfection); assay type: cell-based; set-up: expressed in transfected cells; host or cells: mouse fibroblasts, line ConA, transfected with MDR1 cDNA in LNL6 (Mo-MuLV LTR promoter)
From the text: These cells are known to overexpress P-gp as result of MDR1 gene amplification. To completely eliminate possibility that some other ABC type transporter expressed in KB-8-5-11 cells might be responsible for this phenomenon, mouse fibroblasts, line ConA, permanently expressing human P-gp as a result of transfection with MDR1 cDNA-expressing plasmid LNL6 were used.

KB-8-5-11 cells = assay: Drug sensitivity assay, KB-8-5-11 cells (P-gp-positive); assay type: cell-based, human; details: for IC50: Homo sapiens, human KB-8-5-11 cells, read-out: 50% growth inhibitory dose of the drug
Description: as §4, §2

[5] = DMBA sensitivity of mouse cells; assay type: cell-based; details: mouse fibroblasts, three days, without Compound 102; read-out: IC50 of DMBA cytotoxicity
Description: as §5

P-gp [6] = test system: P-gp
Description: as §4, §1

P-gp [7] = target: T1, P-gp
P-gp [8] = target: T1, P-gp; remark: listed apart in the source
P-gp [9] = assay: Rho123 accumulation in ConA cells; assay type: cell-based, mouse; details: identified compounds present
Description: Screening of a chemical library. Murine fibroblastoid cell line (ConA) was selected as the readout system for screening a chemical library for P-gp activators. […] Rho123, a classic fluorescent P-gp substrate that is detected easily using multichannel fluorimeter in living cells, was used as an efflux indicator. […] Primary screening was performed on ConA cells for compounds that interfere with Adr-induced activation of p53-responsive reporter LacZ gene as previously described (11). To identify P-gp modulators, all “hits” isolated after primary screening were tested for their ability to modulate cellular accumulation of Rho123. Con A cells grown in 96-well plates were incubated 4 hours with 0.5 μM Rho123 in combination with individual library compounds (2 μg/ml (2-5 μM)), and cell fluorescence was analyzed using fluorescent microscopy.
as §1
ConA cells were incubated two hours with Rho123 ([…]) or daunorubicin (500 ng/ml) in the presence of the identified compounds, and accumulation of the drugs was quantitated by flow cytometry.

T1 sequence (P08183 whole entry): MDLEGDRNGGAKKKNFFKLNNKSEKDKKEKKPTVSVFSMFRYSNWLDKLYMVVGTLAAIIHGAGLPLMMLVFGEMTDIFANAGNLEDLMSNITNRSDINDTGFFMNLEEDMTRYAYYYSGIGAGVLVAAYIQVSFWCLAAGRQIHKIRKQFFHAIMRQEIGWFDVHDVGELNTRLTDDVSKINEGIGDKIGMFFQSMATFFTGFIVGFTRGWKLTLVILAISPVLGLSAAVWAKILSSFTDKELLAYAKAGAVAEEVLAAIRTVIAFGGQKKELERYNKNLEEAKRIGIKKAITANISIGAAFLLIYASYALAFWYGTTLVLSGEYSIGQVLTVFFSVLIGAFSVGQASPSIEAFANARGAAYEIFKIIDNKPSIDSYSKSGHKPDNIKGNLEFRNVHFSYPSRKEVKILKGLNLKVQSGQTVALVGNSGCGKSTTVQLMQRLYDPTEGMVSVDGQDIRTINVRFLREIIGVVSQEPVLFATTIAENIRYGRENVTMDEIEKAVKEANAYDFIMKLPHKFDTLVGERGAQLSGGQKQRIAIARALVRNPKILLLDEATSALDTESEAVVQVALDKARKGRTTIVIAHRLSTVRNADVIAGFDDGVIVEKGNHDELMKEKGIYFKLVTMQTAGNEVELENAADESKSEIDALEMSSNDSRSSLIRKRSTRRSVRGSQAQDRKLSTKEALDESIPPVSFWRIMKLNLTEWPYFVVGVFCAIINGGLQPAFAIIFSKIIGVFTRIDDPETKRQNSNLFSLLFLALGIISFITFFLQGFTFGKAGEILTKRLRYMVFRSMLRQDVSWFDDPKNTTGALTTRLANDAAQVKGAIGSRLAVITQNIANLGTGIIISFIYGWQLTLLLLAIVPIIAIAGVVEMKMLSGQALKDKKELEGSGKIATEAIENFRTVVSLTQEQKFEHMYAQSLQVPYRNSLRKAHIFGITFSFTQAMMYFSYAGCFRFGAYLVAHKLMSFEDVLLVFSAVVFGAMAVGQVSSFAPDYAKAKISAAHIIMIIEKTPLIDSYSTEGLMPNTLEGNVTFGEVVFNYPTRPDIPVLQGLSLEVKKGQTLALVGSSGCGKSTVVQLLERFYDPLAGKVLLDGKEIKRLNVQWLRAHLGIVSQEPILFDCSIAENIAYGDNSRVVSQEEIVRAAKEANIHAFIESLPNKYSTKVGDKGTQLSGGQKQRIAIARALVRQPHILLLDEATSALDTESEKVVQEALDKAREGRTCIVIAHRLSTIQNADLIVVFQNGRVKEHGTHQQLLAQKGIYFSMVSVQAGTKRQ

Compound: Cc1ccccc1Cn1c(=O)sc2ccccc21 [Compound 103]
- cell sensitivity to vinblastine (SW1753-A120 cells): increases; also recorded: weak sensitizing effect
- cell sensitivity to vinblastine (KB-3-1 cells; P-gp- and MRP1-negative cells KB-3-1 (FIG. 14)): weak sensitizing effect
- cell sensitivity to doxorubicin (KB-3-1 cells; P-gp- and MRP1-negative cells KB-3-1 (FIG. 17)): can increase cell resistance
- cell sensitivity to doxorubicin (KB-8-5-11 cells; P-gp-positive cells KB-8-5-11 (FIG. 15)): increase cell sensitivity

Compound: Cc1c2ccccc2c(C)c2c1ccc1ccccc12 [DMBA, 7,12-dimethylbenz[a]anthracene]
- IC50 (mouse ConA cells; Mus musculus, Fibroblast, 72 h, read-out: IC50 of DMBA cytotoxicity): 5 µM
- IC50 at 3 days [5]: 310 nM

Compound: COC(=O)[C@H]1[C@H]2C[C@@H]3c4[nH]c5cc(OC)ccc5c4CCN3C[C@H]2C[C@@H](OC(=O)c2cc(OC)c(OC)c(OC)c2)[C@@H]1OC [reserpine]
- effect of P-gp inhibitor on Compound 102-stimulated Rho123 efflux (P-gp [1]; ConA cells preloaded with Rho123, Compound 102 present): completely reverted
- effect of P-gp inhibitor on compound-mediated reduction of Adr and Rho123 accumulation (P-gp [9]): completely reverted

The next lines start with results.

- Rho123 accumulation (P-gp [2]): strongly decreased
- P-gp-mediated efflux of taxol (P-gp [3]): suppressed
- resistance to doxorubicin (P-gp [4]; mouse ConA fibroblasts expressing human P-gp (FIG. 10)): increased resistance
- resistance to vinblastine (P-gp [4]; mouse ConA fibroblasts expressing human P-gp (data not shown)): decreased resistance
Compound: Cc1ccc(-c2cn3c4c(sc3n2)CCCC4)cc1 [Compound 102, 2-p-Tolyl-5,6,7,8-tetrahydro-benzo[d]imidazo[2,1-b]thiazole]
- increase of efflux of Rho123 from cells preloaded with the dye (P-gp [1]; ConA cells loaded with Rho123, Rho123-free medium, with vs without Compound 102 (FIGS. 2 and 3)): about 20 times
- cell sensitivity to vinblastine (SW1753-A120 cells): no effect
- cell sensitivity to doxorubicin (SW1753-A120 cells; MRP1-positive cells SW1753-A120 (FIG. 16)): no effect
- cell sensitivity to colcemide (ConA cells; ConA cells grown 72 hours with drug with or without Compound 102 (FIG. 6)): no effect
- effect on drug sensitivity (KB-3-1 cells; P-gp-negative cell line KB-3-1): No effect
- protection of cells from cytotoxicity of DMBA (mouse ConA cells): strongly protects
- increase of natural level of resistance to DMBA (mouse ConA cells; mouse fibroblasts, 10 μM Compound 102): greater than 15 fold

- IC50 (KB-8-5-11 cells; with Compound 102): 1.2 µg/mL (≈ 2.21 µM)
- IC50 (KB-8-5-11 cells; without Compound 102): 0.2 µg/mL (≈ 0.368 µM)
Compound: COc1cccc2c1C(=O)c1c(O)c3c(c(O)c1C2=O)C[C@@](O)(C(=O)CO)C[C@@H]3O[C@H]1C[C@H](N)[C@H](O)[C@H](C)O1 [Doxorubicin, adriamycin]
- Change in sensitivity (x-fold) (ConA cells; ConA cells, Compound 102 (10 μM), fold resistance): 6 x-fold
- IC50 (ConA cells; with Compound 102): 0.3 µg/mL (≈ 0.552 µM)
- IC50 (ConA cells; without Compound 102): 0.05 µg/mL (≈ 0.092 µM)
- Effect of Compound 102 on drug sensitivity of cell lines: ConA (Balb 3T3) (ConA cells; P-gp-positive ConA cells, label = drug): R
- cytotoxicity of the drug in the presence of Compound 102 (P-gp [6]): less toxic

- changes in cell cross resistance to P-gp substrates tested (P-gp [7]): did not cause detectable changes
- effect on P-gp-mediated Rho123 efflux (P-gp [8]): weak effect
Compound: CC(=O)[C@H]1CC[C@H]2[C@@H]3CCC4=CC(=O)CC[C@]4(C)[C@H]3CC[C@]12C [progesterone]
